From patent US20040265288A1, “New applications of gene therapy technology” (priority 1995, published 2004)
Where two headings read alike, the source gives them in different places.

Columns and labels:
FKBP12 = FKBP12 (Homo sapiens, UniProt P62942); conditions: linker positioned in the calcineurin binding domain of FK506; cited from earlier work
[1] = linker positioned in the calcineurin binding domain of FK506; cited from earlier work
[2] = test system: FKBP12-containing fusion proteins (3xFKBP-p65 / ZFHD1-3xFKBP transcription factors); experiment: Dimerizer-regulated gene expression (SEAP or hGH reporter) in transfected cells; format: cell-based, human; conditions: for activation of transcription with stably integrated constructs: cells in which transcription factor and reporter gene constructs are all stably integrated
Method: To screen clones it is convenient to transiently transfect cells in a 96-well format. Lipofectamine is used to introduce 50 ng total DNA/96-well under conditions recommended by the manufacturer (Gibco/BRL). If introducing both the transcription factor and target gene plasmids transiently, use 20 ng of each plasmid and 10 ng of carrier DNA (it may be necessary to optimize plasmid ratios and transfection conditions for each cell type). If only introducing one plasmid, bring to 50 ng with carrier DNA.
Following transfection, add medium +/−100 nM AP1510 dimerizer (or try a range of concentrations).
After overnight incubation (or longer), assay for target gene expression.
Secreted alkaline phosphatase activity can be easily measured from the supernatant of appropriately transfected cells using fluorescence-(see (10)), or chemiluminescence-(Tropix, Bedford, Mass.) based assays. Samples to be tested should first be incubated at 65° C. for 1 hour to inactivate endogenous alkaline phosphatase activity.
In gene regulation applications, expression becomes detectable at an AP1510 concentration of approximately 10 nM, and peaks at approximately 100 nM. When SEAP or hGH reporter systems are used, expression can be easily detected after an overnight incubation with dimerizer. In our experience, the efficacy is generally similar for other dimerization applications. A range of concentrations from 1 nM to 1 uM will typically provide a good dose-response profile in both cases.

cells = experiment: Toxicity to cells; format: cell-based
[3] = Solubility in aqueous culture medium; format: physicochemical; conditions: serial dilution in (aqueous) culture medium
Method: Working concentrations of AP1510 can be obtained by adding compound directly from ethanol stocks, or by diluting serially in culture medium just before use. In the latter case it is recommended that the highest concentration not exceed 5 uM, to ensure complete solubility in the (aqueous) medium. In either case, the final concentration of ethanol in the medium added to mammalian cells should be kept below 0.5% (a 200-fold dilution of a 100% ethanol solution) to prevent detrimental effects of the solvent on the cells.

[4] = Immunosuppressive activity of dimerizer
[5] = test system: transmembrane receptors that are activated by oligomerization; experiment: Dimerization of transmembrane receptors; format: cell-based
[6] = gene regulation applications, SEAP or hGH reporter, overnight incubation with dimerizer

FKBP12, sequence (P62942 whole entry, the tested form may be a part): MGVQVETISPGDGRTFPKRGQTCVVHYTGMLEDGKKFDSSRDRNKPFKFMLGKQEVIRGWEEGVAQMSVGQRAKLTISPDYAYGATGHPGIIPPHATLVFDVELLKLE

Molecule | FKBP12 binding (FKBP12) | immunosuppressive activity [1] | activation of transcription with stably integrated constructs [2] | toxicity to cells (cells) | highest concentration ensuring complete solubility in medium [3] [µM] | immunosuppressive activity [4] | activation of transcription compared with FK1012 ([2]; gene regulation applications) | AP1510 concentration at which expression becomes detectable [2, 6] | AP1510 concentration at which expression peaks [2, 6] | dimerization of transmembrane receptors [5]
FK1012 | unaffected | abolishes immunosuppressive activity | poor | – | – | – | – | – | – | –
CCC(C)(C)C(=O)C(=O)N1CCCC[C@H]1C(=O)O[C@H](CCc1ccc(OC)c(OC)c1)c1cccc(OCC(=O)NCCNC(=O)COc2cccc([C@@H](CCc3ccc(OC)c(OC)c3)OC(=O)[C@@H]3CCCCN3C(=O)C(=O)C(C)(C)CC)c2)c1 [AP1510] | – | – | activates transcription efficiently | non-toxic to cells | ≤ 5 | no immunosuppressive activity | at lower concentrations and to a higher level than FK1012 | approximately 10 nM | approximately 100 nM | successfully used to dimerize
